Assay results reported in patent US11622556B2, “Re-oiled and hyper-oiled lecithin carrier vehicles” (BIO-UP MIMETIC TECHNOLOGIES, INC., priority 2016, dated 2023).

How the values were obtained:
[1] = system: Sinorhizobium meliloti; test: Microbial growth in 96-well plate, change in absorbance at 630 nm; type: cell-based; details: for overall potency order of essential oils: essential oils in de-oiled lecithin liposomes with triglyceride
[2] = system: mosquito larvae; type: in vivo; details: liposomal essential oils in pond water

| SMILES | overall potency order of essential oils [1] | activity as a single agent ([1]; liposomes with 0, 20 or 45 wt % triglyceride, particularly notable at 45%) | larvicidal activity order [2] | antimicrobial activity of marker label ([1]; in liposome membrane) |
| --- | --- | --- | --- | --- |
| O=CC=Cc1ccccc1 [cinnamaldehyde] | vetiver≈cinnamaldehyde>citronella≈sandalwood≈bayleaf≈patchouli≈rosewood>linalool≈d-limonene | greater activity than citronella | thymol>cinnamaldehyde˜d-limonene>citronella˜eugenol>sandalwood oil˜coriander oil˜lavender oil |  |
| C=C(C)[C@H]1CC=C(C)CC1 [d-limonene] | vetiver≈cinnamaldehyde>citronella≈sandalwood≈bayleaf≈patchouli≈rosewood>linalool≈d-limonene |  | thymol>cinnamaldehyde˜d-limonene>citronella˜eugenol>sandalwood oil˜coriander oil˜lavender oil |  |
| COc1cc(/C=C/C(=O)CC(=O)/C=C/c2ccc(O)c(OC)c2)ccc1O [diferuloylmethane, reference compound] |  |  |  | no antimicrobial activity |
| C=CCc1ccc(O)c(OC)c1 [eugenol] |  |  | thymol>cinnamaldehyde˜d-limonene>citronella˜eugenol>sandalwood oil˜coriander oil˜lavender oil |  |
| Cc1ccc(C(C)C)c(O)c1 [thymol] |  |  | thymol>cinnamaldehyde˜d-limonene>citronella˜eugenol>sandalwood oil˜coriander oil˜lavender oil |  |
